From PubChem BioAssay AID2060898 (Molecular Pharmacology Branch, DTP, NCI, 2025)

Test system: 616215-338-R-J1-PDC complex spheroid viability
Test: Anticancer human tumor 616215-338-R-J1-PDC patient-derived colon adenocarcinoma cell line growth inhibition [RAS]
Conditions: for IC50: curve of first compound; for viability, T/C: stronger effect = lower value
How it was run: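 Multi-cell-type spheroids: tumor cells plus HUVEC endothelial cells and mesenchymal stem cells. RAS-pathway inhibitors were combined with targeted agents, each dosed in half-log steps down from clinical Cmax, or from 10 microM when Cmax was unknown.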
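Further: spheroids exposed to agents for seven days before viability readout.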
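Wherever viability, T/C is given: 100% = DMSO vehicle control viability.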

CC1(O)CCCC1n1c(=O)c(C(F)F)cc2cnc(NC3CCN(S(C)(=O)=O)CC3)nc21 (configuration not stated) + CCn1c(-c2cccnc2C(C)OC)c2c3cc(ccc31)N1CCOC(CC(NC(=O)C(C(C)C)N(C)C(=O)C3(F)CCN(C(=O)C#CC(C)(C)N(C)C)CC3)C(=O)N3CCCC(N3)C(=O)OCC(C)(C)C2)C1
IC50 (second compound 0.000949 µM): 1180 nM | IC50 (second compound 0.003 µM): 1290 nM | IC50 (second compound 0.00949 µM): 1340 nM | IC50 (second compound 0.03 µM): 1160 nM | IC50 (second compound 0.0949 µM): 1180 nM | IC50 (second compound 0.3 µM): 830 nM | viability, T/C (second compound 0.000949 µM, first compound 0.0316 µM): 112% | viability, T/C (second compound 0.000949 µM, first compound 0.1 µM): 105% | viability, T/C (second compound 0.000949 µM, first compound 0.316 µM): 57.5% | viability, T/C (second compound 0.000949 µM, first compound 1 µM): 53.3% | viability, T/C (second compound 0.000949 µM, first compound 3.16 µM): 48.3% | viability, T/C (second compound 0.000949 µM, first compound 10 µM): 3.43% | viability, T/C (second compound 0.003 µM, first compound 0.0316 µM): 114% | viability, T/C (second compound 0.003 µM, first compound 0.1 µM): 109% | viability, T/C (second compound 0.003 µM, first compound 0.316 µM): 58.3% | viability, T/C (second compound 0.003 µM, first compound 1 µM): 56.5% | viability, T/C (second compound 0.003 µM, first compound 3.16 µM): 49.9% | viability, T/C (second compound 0.003 µM, first compound 10 µM): 3.17% | viability, T/C (second compound 0.00949 µM, first compound 0.0316 µM): 109% | viability, T/C (second compound 0.00949 µM, first compound 0.1 µM): 112% | viability, T/C (second compound 0.00949 µM, first compound 0.316 µM): 61.9% | viability, T/C (second compound 0.00949 µM, first compound 1 µM): 55.3% | viability, T/C (second compound 0.00949 µM, first compound 3.16 µM): 50.3% | viability, T/C (second compound 0.00949 µM, first compound 10 µM): 3.71% | viability, T/C (second compound 0.03 µM, first compound 0.0316 µM): 118% | viability, T/C (second compound 0.03 µM, first compound 0.1 µM): 112% | viability, T/C (second compound 0.03 µM, first compound 0.316 µM): 55.1% | viability, T/C (second compound 0.03 µM, first compound 1 µM): 50% | viability, T/C (second compound 0.03 µM, first compound 3.16 µM): 46% | viability, T/C (second compound 0.03 µM, first compound 10 µM): 4.07% | viability, T/C (second compound 0.0949 µM, first compound 0.0316 µM): 108% | viability, T/C (second compound 0.0949 µM, first compound 0.1 µM): 102% | viability, T/C (second compound 0.0949 µM, first compound 0.316 µM): 60.8% | viability, T/C (second compound 0.0949 µM, first compound 1 µM): 51% | viability, T/C (second compound 0.0949 µM, first compound 3.16 µM): 49.8% | viability, T/C (second compound 0.0949 µM, first compound 10 µM): 4.02% | viability, T/C (second compound 0.3 µM, first compound 0.0316 µM): 95.5% | viability, T/C (second compound 0.3 µM, first compound 0.1 µM): 74.3% | viability, T/C (second compound 0.3 µM, first compound 0.316 µM): 44.1% | viability, T/C (second compound 0.3 µM, first compound 1 µM): 52.6% | viability, T/C (second compound 0.3 µM, first compound 3.16 µM): 52.4% | viability, T/C (second compound 0.3 µM, first compound 10 µM): 3.81%
